According to ChEMBL document CHEMBL5380795, “Design, Synthesis, and Bioactivity Investigation of Cyclic Lipopeptide Antibiotics Containing Eight to Nine Amino Acids” (J Med Chem, 2023):
Converted amounts (≈) assume the structure as drawn. The source made the active and inactive calls. No cut-off for these calls is given here.

Key:
Staphylococcus aureus [1] = assay: Antibacterial activity against methicillin resistant Staphylococcus aureus ATCC 33591 assessed as inhibition of bacterial growth incubated for 18 to 24 hrs by broth microdilution method; type: functional; conditions: time 18-24 hrs
Staphylococcus aureus [2] = assay: Antibacterial activity against Staphylococcus aureus ATCC 29213 assessed as inhibition of bacterial growth incubated for 18 to 24 hrs by broth microdilution method; type: functional; conditions: time 18-24 hrs
Escherichia coli [3] = assay: Antibacterial activity against Escherichia coli ATCC BAA-2523 assessed as inhibition of bacterial growth incubated for 18 to 24 hrs by broth microdilution method; type: functional; conditions: time 18-24 hrs
Pseudomonas aeruginosa [4] = assay: Antibacterial activity against carbapenem resistant Pseudomonas aeruginosa clinical isolate 17-1 assessed as inhibition of bacterial growth incubated for 18 to 24 hrs by broth microdilution method; type: functional; conditions: time 18-24 hrs
Pseudomonas aeruginosa [5] = assay: Antibacterial activity against Pseudomonas aeruginosa ATCC 27853 assessed as inhibition of bacterial growth incubated for 18 to 24 hrs by broth microdilution method; type: functional; conditions: time 18-24 hrs
Acinetobacter baumannii = assay: Antibacterial activity against carbapenem resistant Acinetobacter baumannii clinical isolate 19-8 assessed as inhibition of bacterial growth incubated for 18 to 24 hrs by broth microdilution method; type: functional; conditions: time 18-24 hrs
Escherichia coli [6] = assay: Bactericidal activity against Escherichia coli ATCC BAA-2523 assessed as bacterial count at 8 times MIC measured after 24 hrs by time-kill assay; type: functional, organism-based
[7] = Acute toxicity in ICR mouse administered into tail vein and measured twice daily over 1 week; conditions: in vivo, route iv, time 1 weeks
Escherichia coli [8] = assay: Antibacterial activity against Escherichia coli ATCC BAA-2523 infected in ICR mouse assessed as mouse survival at 4 to 8 mg/kg, iv administered into tail vein and measured daily for 7 days; type: functional, organism-based; conditions: dose 4-8 mg/kg, time 7.0 day
[9] = Plasma protein binding in human at 2 uM incubated for 6 hrs by equilibrium dialysis based LC-MS/MS analysis; type: ADME, cell-free; conditions: read-out: PPB (converted)
Lipopolysaccharide (LPS) [10] = assay: Binding affinity to LIP-1 sensor chip immobilized Escherichia coli LPS assessed as increase in resonance units measured for 600 secs by SPR analysis; conditions: dose 0.125-4 µM, time 600.0 sec
Lipopolysaccharide (LPS) [11] = assay: Binding affinity to LIP-1 sensor chip immobilized Escherichia coli LPS assessed as dissociation constant measured for 600 secs by SPR analysis
Cell membrane = assay: Induction of outer membrane permeabilization in Escherichia coli ATCC 25922 assessed as increase in fluorescence at 1 to 16 ug/ml measured after 3 mins by NPN-dye based assay; type: subcellular; conditions: dose 1-16 µg/ml
Escherichia coli [12] = assay: Potentiation of rifampicin induced antibacterial activity in Escherichia coli ATCC 25922 assessed as rifampicin MIC at 0.008 ug/ml incubated for 18 to 24 hrs by broth microdilution method (reference value: 2 ug/ml); type: functional; conditions: dose 0.008 µg/ml, time 18-24 hrs

CCCCCCC[C@@H](O)CC(=O)N[C@H](CCN)C(=O)N[C@H]1CCNC(=O)[C@H]([C@@H](C)O)NC(=O)[C@H](CCN)NC(=O)[C@H](CCN)NC(=O)[C@H]([C@@H](C)O)NC(=O)[C@@H](Cc2ccccc2)NC(=O)[C@H](CCN)NC1=O
MIC (Staphylococcus aureus [1]): > 64 µg/mL | MIC (Staphylococcus aureus [2]): > 64 µg/mL | MIC (Escherichia coli [3]): 0.5 µg/mL (≈ 0.49 µM) | MIC (Pseudomonas aeruginosa [4]): 0.5 µg/mL (≈ 0.49 µM) | MIC (Pseudomonas aeruginosa [5]): 0.25 µg/mL (≈ 0.245 µM) | MIC (Acinetobacter baumannii): 32 µg/mL (≈ 31.4 µM) | Activity (Escherichia coli [6]): Below limit of detection | LD50 at 168 h [7]: 12.4 mg/kg | Activity (Escherichia coli [8]): Active | fraction unbound at 6 h, 2 µM [9]: 0.147 | Activity (Lipopolysaccharide (LPS) [10]): Dose-Dependent Effect | Kd (Lipopolysaccharide (LPS) [11]): 0.48 µM | Activity (Cell membrane): Active | MIC (Escherichia coli [12]): 0.5 µg/mL
